Experimental data published in PubChem BioAssay AID256 (DTP/NCI, 2004).
Where “and” joins values, the source holds several entries; their conditions need not be identical. Equal entries are not always repeated. Toxic doses and inconclusive results are not listed. How the source made its calls: active means survival T/C of 150% or more; inactive means T/C below 125% in these data.

System: CD2F1 mice, L1210 leukemia ip, survival T/C
Experiment: NCI In Vivo Anticancer Drug Screen. Data for tumor model L1210 Leukemia (intraperitoneal) in CD2F1 (CDF1) mice
Conditions: higher = longer survival
In short: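 Transplantable tumor in mice; compound-treated vs vehicle-treated groups. Read-out = treated/control ratio of the measured endpoint.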

[1] = endpoint: mean survival time, dose: 100.0 mg/kg/injection, schedule: Q01DX009 (ip), vehicle: saline with Tween-80
[2] = endpoint: mean survival time, dose: 200.0 mg/kg/injection, schedule: Q01DX009 (ip), vehicle: saline with Tween-80
[3] = endpoint: mean survival time, dose: 50.0 mg/kg/injection, schedule: Q01DX009 (ip), vehicle: saline with Tween-80
[4] = endpoint: mean survival time, dose: 2.5 mg/kg/injection, schedule: Q01DX009 (ip), vehicle: saline
[5] = endpoint: mean survival time, dose: 5.0 mg/kg/injection, schedule: Q01DX009 (ip), vehicle: saline

Measured: T/C

O=C(O)CC(CC(=O)O)C(=O)O.[NH-]C1CCCCC1[NH-].[Pt+2]
inactive: endpoint: median survival time, dose: 3.12 mg/kg/injection, schedule: Q04DX003 (ip), vehicle: Klucel (hydroxypropylcellulose) (HPC) 112 % of control | endpoint: median survival time, dose: 3.12 mg/kg/injection, schedule: Q04DX003 (ip), vehicle: saline 106 % of control | endpoint: median survival time, dose: 6.25 mg/kg/injection, schedule: Q04DX003 (ip), vehicle: Klucel (hydroxypropylcellulose) (HPC) 112 % of control | endpoint: median survival time, dose: 6.25 mg/kg/injection, schedule: Q04DX003 (ip), vehicle: saline 106 % of control | endpoint: median survival time, dose: 12.5 mg/kg/injection, schedule: Q04DX003 (ip), vehicle: Klucel (hydroxypropylcellulose) (HPC) 122 % of control | endpoint: median survival time, dose: 12.5 mg/kg/injection, schedule: Q04DX003 (ip), vehicle: saline 101 % of control and 109 % of control | endpoint: median survival time, dose: 25.0 mg/kg/injection, schedule: Q04DX003 (ip), vehicle: Klucel (hydroxypropylcellulose) (HPC) 101 % of control | endpoint: median survival time, dose: 25.0 mg/kg/injection, schedule: Q04DX003 (ip), vehicle: saline 118 % of control and 107 % of control | endpoint: median survival time, dose: 50.0 mg/kg/injection, schedule: Q04DX003 (ip), vehicle: Klucel (hydroxypropylcellulose) (HPC) 103 % of control | endpoint: median survival time, dose: 50.0 mg/kg/injection, schedule: Q04DX003 (ip), vehicle: saline 109 % of control | endpoint: median survival time, dose: 100.0 mg/kg/injection, schedule: Q04DX003 (ip), vehicle: Klucel (hydroxypropylcellulose) (HPC) 109 % of control | endpoint: median survival time, dose: 100.0 mg/kg/injection, schedule: Q04DX003 (ip), vehicle: saline 120 % of control and 110 % of control | endpoint: median survival time, dose: 200.0 mg/kg/injection, schedule: Q04DX003 (ip), vehicle: Klucel (hydroxypropylcellulose) (HPC) 116 % of control | endpoint: median survival time, dose: 200.0 mg/kg/injection, schedule: Q04DX003 (ip), vehicle: saline 113 % of control

COc1cc(NCc2ccc3nc(N)nc(N)c3c2C)cc(OC)c1OC (tested in a mixture with another compound)
inactive: endpoint: median survival time, dose: 10.0 mg/kg/injection, schedule: Q01DX005 (ip), vehicle: water 115 % of control

CCCCCCCCOCCOCCOCCOCCOCCCCCCCC
inactive: endpoint: mean survival time, dose: 100.0 mg/kg/injection, schedule: Q04DX002 (ip), vehicle: saline with Tween-80 102 % of control | endpoint: mean survival time, dose: 200.0 mg/kg/injection, schedule: Q04DX002 (ip), vehicle: saline with Tween-80 98 % of control | endpoint: mean survival time, dose: 400.0 mg/kg/injection, schedule: Q04DX002 (ip), vehicle: saline with Tween-80 102 % of control

COC(=O)C(CSCc1ccccc1)NC(=O)C(C)NC(=O)OCc1ccccc1 (stereo unspecified)
inactive: [1] 88 % of control | [2] 92 % of control | endpoint: mean survival time, dose: 400.0 mg/kg/injection, schedule: Q01DX009 (ip), vehicle: saline with Tween-80 92 % of control

O=C1C=CC(=O)N1c1ccccc1N1C(=O)C=CC1=O
inactive: endpoint: mean survival time, dose: 1.25 mg/kg/injection, schedule: Q01DX009 (ip), vehicle: Klucel (hydroxypropylcellulose) (HPC) 90 % of control | endpoint: mean survival time, dose: 2.5 mg/kg/injection, schedule: Q01DX009 (ip), vehicle: Klucel (hydroxypropylcellulose) (HPC) 94 % of control

COC(=O)c1cc(C)ccc1O
inactive: [1] 96 % of control | endpoint: mean survival time, dose: 100.0 mg/kg/injection, schedule: Q04DX003 (ip), vehicle: saline with Tween-80 90 % of control | [2] 101 % of control | endpoint: mean survival time, dose: 200.0 mg/kg/injection, schedule: Q04DX003 (ip), vehicle: saline with Tween-80 93 % of control | endpoint: mean survival time, dose: 400.0 mg/kg/injection, schedule: Q04DX003 (ip), vehicle: saline with Tween-80 100 % of control

Cc1cc(NC(=S)SCc2ccc3c(c2)OCO3)ccc1Cl
inactive: endpoint: median survival time, dose: 12.5 mg/kg/injection, schedule: Q01DX009 (ip), vehicle: Klucel (hydroxypropylcellulose) (HPC) 108 % of control | endpoint: median survival time, dose: 25.0 mg/kg/injection, schedule: Q01DX009 (ip), vehicle: Klucel (hydroxypropylcellulose) (HPC) 100 % of control and 106 % of control and 110 % of control | endpoint: median survival time, dose: 50.0 mg/kg/injection, schedule: Q01DX009 (ip), vehicle: Klucel (hydroxypropylcellulose) (HPC) 112 % of control and 113 % of control and 106 % of control | endpoint: median survival time, dose: 100.0 mg/kg/injection, schedule: Q01DX009 (ip), vehicle: Klucel (hydroxypropylcellulose) (HPC) 114 % of control | endpoint: median survival time, dose: 200.0 mg/kg/injection, schedule: Q01DX009 (ip), vehicle: Klucel (hydroxypropylcellulose) (HPC) 120 % of control

COc1c(Cl)c(=O)oc2cc(C)c(Cl)c(C)c12
inactive: endpoint: mean survival time, dose: 100.0 mg/kg/injection, schedule: Q01DX001 (ip), vehicle: saline with Tween-80 93 % of control | endpoint: mean survival time, dose: 200.0 mg/kg/injection, schedule: Q01DX001 (ip), vehicle: saline with Tween-80 96 % of control | endpoint: mean survival time, dose: 400.0 mg/kg/injection, schedule: Q01DX001 (ip), vehicle: saline with Tween-80 96 % of control

Cc1cc2c(=O)cc(-c3ccccc3)oc2c(C(=O)O)c1C
inactive: endpoint: median survival time, dose: 31.75 mg/kg/injection, schedule: Q01DX005 (ip), vehicle: saline with Tween-80 109 % of control | endpoint: median survival time, dose: 62.5 mg/kg/injection, schedule: Q01DX005 (ip), vehicle: saline with Tween-80 106 % of control | endpoint: median survival time, dose: 125.0 mg/kg/injection, schedule: Q01DX005 (ip), vehicle: saline with Tween-80 104 % of control | endpoint: median survival time, dose: 250.0 mg/kg/injection, schedule: Q01DX005 (ip), vehicle: saline with Tween-80 102 % of control

C#CC(=O)OCC#CCOC(=O)C#C
inactive: endpoint: mean survival time, dose: 0.75 mg/kg/injection, schedule: Q01DX009 (ip), vehicle: saline with Tween-80 98 % of control | endpoint: mean survival time, dose: 1.5 mg/kg/injection, schedule: Q01DX009 (ip), vehicle: saline with Tween-80 100 % of control | endpoint: mean survival time, dose: 3.0 mg/kg/injection, schedule: Q01DX009 (ip), vehicle: saline with Tween-80 98 % of control | endpoint: mean survival time, dose: 6.0 mg/kg/injection, schedule: Q01DX009 (ip), vehicle: saline with Tween-80 98 % of control | endpoint: mean survival time, dose: 12.0 mg/kg/injection, schedule: Q01DX009 (ip), vehicle: saline with Tween-80 90 % of control

O=C(c1ccccc1)N1CC2CC3OC3c3cccc1c32 (stereo unspecified)
inactive: [3] 102 % of control | [1] 98 % of control | [2] 94 % of control

CS(=O)(=O)OCCCOS(C)(=O)=O
inactive: endpoint: mean survival time, dose: 12.5 mg/kg/injection, schedule: Q01DX009 (ip), vehicle: saline with Tween-80 107 % of control | endpoint: mean survival time, dose: 25.0 mg/kg/injection, schedule: Q01DX009 (ip), vehicle: saline with Tween-80 116 % of control | endpoint: mean survival time, dose: 50.0 mg/kg/injection, schedule: Q01DX001 (ip), vehicle: saline 96 % of control | [3] 116 % of control | endpoint: mean survival time, dose: 100.0 mg/kg/injection, schedule: Q01DX001 (ip), vehicle: saline 100 % of control | [1] 105 % of control | endpoint: mean survival time, dose: 100.0 mg/kg/injection, schedule: Q04DX003 (ip), vehicle: saline 105 % of control | endpoint: mean survival time, dose: 200.0 mg/kg/injection, schedule: Q01DX001 (ip), vehicle: saline 102 % of control | endpoint: mean survival time, dose: 200.0 mg/kg/injection, schedule: Q04DX003 (ip), vehicle: saline 106 % of control | endpoint: mean survival time, dose: 400.0 mg/kg/injection, schedule: Q01DX001 (ip), vehicle: saline 100 % of control | endpoint: mean survival time, dose: 400.0 mg/kg/injection, schedule: Q04DX003 (ip), vehicle: saline 110 % of control

O=[N+]([O-])O.[In]
inactive: endpoint: mean survival time, dose: 1.25 mg/kg/injection, schedule: Q01DX009 (ip), vehicle: saline 93 % of control | [4] 96 % of control | [5] 95 % of control | endpoint: mean survival time, dose: 10.0 mg/kg/injection, schedule: Q01DX009 (ip), vehicle: saline 96 % of control

CNC[C@@H](O)c1ccc(O)c(O)c1
inactive: endpoint: mean survival time, dose: 1.0 mg/kg/injection, schedule: Q01DX001 (ip), vehicle: saline 97 % of control | endpoint: mean survival time, dose: 2.0 mg/kg/injection, schedule: Q01DX001 (ip), vehicle: saline 100 % of control | [4] 104 % of control | endpoint: mean survival time, dose: 4.0 mg/kg/injection, schedule: Q01DX001 (ip), vehicle: saline 107 % of control | [5] 104 % of control | endpoint: mean survival time, dose: 8.0 mg/kg/injection, schedule: Q01DX001 (ip), vehicle: saline 103 % of control

O=c1c2nc(-c3ccccc3)oc2ncn1C1OC(CO)C(O)C1O (stereo unspecified)
inactive: endpoint: mean survival time, dose: 100.0 mg/kg/injection, schedule: Q01DX005 (ip), vehicle: saline 100 % of control | endpoint: mean survival time, dose: 200.0 mg/kg/injection, schedule: Q01DX005 (ip), vehicle: saline 98 % of control
